In paper PMC3932137, “Simple, sensitive and rapid determination of linifanib (ABT-869), a novel tyrosine kinase inhibitor in rat plasma by UHPLC-MS/MS” (Chemistry Central Journal, 2014):

Experiments:
[1] = stability of stock solutions and working solutions; format: physicochemical; details: for time stock solutions and working standard stable at refrigerator temperature: refrigerator temperature (below 10°C)
Experimental: (§1) The stability of linifanib in rat plasma during the sample storage and processing conditions was assessed by analyzing six replicates of LQC and HQC. Short-term stability was assessed after keeping the plasma samples at ambient temperature for ∼ 6 h, the freeze–thaw stability was determined after three cycles of freeze-thaw. Post-preparative stability was determined by storing the reconstituted QC samples for ∼ 48 h under autosampler conditions (maintained at 10°C) before being analyzed. Long-term stability was assessed after storage of the test samples at around −80°C for 30 days. The working solutions and stock solutions of linifanib and the IS were also evaluated for stability at room temperature for 12 h and at refrigerator temperature (below 10°C) for 15 days. The samples were considered stable in plasma at each concentration if the deviation from the mean calculated concentration of quality control samples were within ±15%.

[2] = pilot pharmacokinetic study of linifanib in rats (oral); format: in vivo; details: male, Wistar albino, plasma, rat, 5 mg/kg oral, single dose
Experimental: After an overnight fasting, all rats received linifanib (5 mg/kg, oral, dissolved in HPMC). Blood samples (approximately 0.5 mL) were collected from the retro-orbital plexus into heparinized microfuge tubes at different time interval after linifanib administration and plasma samples were harvested by centrifuging the blood at 4500 rpm for 8 min and stored frozen at −80 ± 10°C until analysis. The pharmacokinetic parameters: Cmax, Tmax, AUC, t½ and Kel were calculated using WinNonlin software.

[3] = stability of linifanib in rat plasma during sample storage and processing; format: in vitro ADME; details: for Accuracy (%) / Mean ± SD concentration found: n = 6
Experimental: as §1

[4] = set-up: method as in PMID 22382879, PMID 19720910; details: phase I study, cited from earlier work
[5] = rat plasma, 30 days at −80°C, nominal 1.28 ng/mL
[6] = rat plasma, 30 days at −80°C, nominal 425 ng/mL
[7] = rat plasma, bench top (6 hrs), nominal 1.28 ng/mL
[8] = rat plasma, bench top (6 hrs), nominal 425 ng/mL
[9] = rat plasma, freeze thaw (3 cycle), nominal 1.28 ng/mL
[10] = rat plasma, freeze thaw (3 cycle), nominal 425 ng/mL
[11] = reconstituted QC samples in injector (48 hrs, 10°C), nominal 1.28 ng/mL
[12] = reconstituted QC samples in injector (48 hrs, 10°C), nominal 425 ng/mL

CCN(CC)CCNC(=O)c1c(C)[nH]c(/C=C2\C(=O)Nc3ccc(F)cc32)c1C [IS, sunitinib]
time stock solutions and working standard stable at refrigerator temperature [1]: 15 days
time stock solutions and working standard stable at room temperature [1]: 12 h

Cc1ccc(F)c(NC(=O)Nc2ccc(-c3cccc4[nH]nc(N)c34)cc2)c1 [linifanib, N-(4-(3-amino-1H-indazol-4-yl)phenyl)-N'-(2-fluoro-5-methylphenyl)urea]
k el [2]: 2.78e-05 s⁻¹
half-life ([2]; read-out: average t½ (converted)): 6.67 h
AUC(0-t) ([2]; read-out: mean AUC0-8h): 232 ng·h/mL
Cmax ([2]; read-out: mean peak plasma concentration (Cmax)): 55.1 ng/mL
Tmax ([2]; read-out: time to peak plasma concentration (Tmax)): 2.5 h
time stable in autosampler ([3]; autosampler maintained at 10°C): 48 h
Accuracy (%) [3, 5]: 98.3%
Mean ± SD concentration found [3, 5]: 1.26 ± 0.10 ng/mL
Accuracy (%) [3, 6]: 90.5%
Mean ± SD concentration found [3, 6]: 384 ± 20.2 ng/mL
Accuracy (%) [3, 7]: 105.0%
Mean ± SD concentration found [3, 7]: 1.35 ± 0.06 ng/mL
Accuracy (%) [3, 8]: 92.7%
Mean ± SD concentration found [3, 8]: 393 ± 34.8 ng/mL
Accuracy (%) [3, 9]: 101.1%
Mean ± SD concentration found [3, 9]: 1.30 ± 0.10 ng/mL
Accuracy (%) [3, 10]: 90.7%
Mean ± SD concentration found [3, 10]: 385 ± 14.3 ng/mL
Accuracy (%) [3, 11]: 110.6%
Mean ± SD concentration found [3, 11]: 1.42 ± 0.09 ng/mL
Accuracy (%) [3, 12]: 107.2%
Mean ± SD concentration found [3, 12]: 455 ± 19.8 ng/mL
time stable in rat plasma at around −80°C ([3]; spiked into rat plasma, around −80°C): up to 30 days
time stable in rat plasma at room temperature ([3]; spiked into rat plasma, room temperature): at least 6.0 h
freeze-thaw stability in rat plasma ([3]; spiked into rat plasma, three freeze-thaw cycle): stable
time stock solutions and working standard stable at refrigerator temperature [1]: 15 days
time stock solutions and working standard stable at room temperature [1]: 12 h
time to peak plasma concentration ([4]; across all dose levels): approx. 2 h
dose recovered as unchanged in urine [4]: 15%
oral clearance [4]: 2.7 L/h
pharmacokinetics (dose and time dependence) [4]: dose proportional and time invariant
